The values below come from PubChem BioAssay AID206 (DTP/NCI, 2004).

Where “and” joins values, the source holds several entries; their conditions need not be identical. Equal entries are not always repeated. Results filed as inconclusive are left out.

This test deals with nude mice, HT29 intrarenal xenograft, tumor weight T/C. Briefly: NCI In Vivo Anticancer Drug Screen. Data for tumor model HT29;CX-1 Human Adenocarcinoma (MER+) (intrarenal inoculation) in NU/NU Swiss (nude) mice. The settings on record: endpoint: mean tumor weight change, higher = larger tumour. A digest of the protocol: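 Mice with transplanted tumors are dosed with compound while controls get vehicle only. Survival or tumor burden is then assessed per group, and the treated value is expressed relative to control.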

The mark [1] stands for this setting: dose: 200.0 mg/kg/injection, schedule: Q01DX010 (sc), vehicle: saline.
[2] abbreviates: dose: 400.0 mg/kg/injection, schedule: Q01DX010 (sc), vehicle: saline.
The mark [3] stands for this setting: dose: 800.0 mg/kg/injection, schedule: Q01DX010 (sc), vehicle: saline.
Where [4] appears, read: dose: 300.0 mg/kg/injection, schedule: Q04DX004 (sc), vehicle: Klucel (hydroxypropylcellulose) (HPC).
Where [5] appears, read: dose: 600.0 mg/kg/injection, schedule: Q04DX004 (sc), vehicle: Klucel (hydroxypropylcellulose) (HPC).
[6] abbreviates: dose: 75.0 mg/kg/injection, schedule: Q04DX004 (sc), vehicle: saline with Tween-80.
Where [7] appears, read: dose: 150.0 mg/kg/injection, schedule: Q04DX004 (sc), vehicle: saline with Tween-80.
Where [8] appears, read: dose: 300.0 mg/kg/injection, schedule: Q04DX004 (sc), vehicle: saline with Tween-80.
Where [9] appears, read: dose: 6.25 mg/kg/injection, schedule: Q04DX004 (sc), vehicle: suspension in saline.
[10] abbreviates: dose: 12.5 mg/kg/injection, schedule: Q04DX004 (sc), vehicle: suspension in saline.

Turning to `Nc1n[nH]c(N)n1`, the T/C reads like this: under setting [1], 295 % of control; under setting [2], 157 % of control; under setting [3], 215 % of control.
For the molecule `CC(C)(C)c1ccc(CN2CCN(C(c3ccccc3)c3ccc(Cl)cc3)CC2)cc1` (centres undefined), the T/C is, setting by setting: (dose: 75.0 mg/kg/injection, schedule: Q04DX004 (sc), vehicle: Klucel (hydroxypropylcellulose) (HPC)) 78 % of control; (dose: 150.0 mg/kg/injection, schedule: Q04DX004 (sc), vehicle: Klucel (hydroxypropylcellulose) (HPC)) 74 % of control; under setting [4], 88 % of control; under setting [5], 93 % of control.
For the molecule `CCC(=O)N(C)[C@@H](C)C(=O)O[C@H]1CC(=O)N(C)c2cc(cc(OC)c2Cl)C/C(C)=C/C=C[C@@H](OC)[C@@]2(O)C[C@H](OC(=O)N2)[C@@H](C)[C@@H]2O[C@@]12C`, the T/C (dose: 0.03 mg/kg/injection, schedule: Q01DX010 (sc), vehicle: saline + alcohol) is 171 % of control; the T/C (dose: 0.06 mg/kg/injection, schedule: Q01DX010 (sc), vehicle: saline + alcohol) was 65 % of control; the T/C (dose: 0.07 mg/kg/injection, schedule: Q01DX010 (sc), vehicle: saline + alcohol) is 120 % of control; the T/C (dose: 0.12 mg/kg/injection, schedule: Q01DX010 (sc), vehicle: saline + alcohol) is 34 % of control; the T/C (dose: 0.13 mg/kg/injection, schedule: Q01DX010 (sc), vehicle: saline + alcohol) is 69 % of control; the T/C (dose: 0.25 mg/kg/injection, schedule: Q01DX010 (sc), vehicle: saline + alcohol) is 2 % of control and 18 % of control.
As to `CCCCCCCC(=O)[O][Hg][CH2]C1COC([CH2][Hg][O]C(=O)CCCCCCC)CO1` (centres undefined), the T/C (dose: 37.5 mg/kg/injection, schedule: Q04DX004 (sc), vehicle: saline with Tween-80) was 110 % of control; the T/C under setting [6] was 120 % of control; the T/C under setting [7] is 47 % of control; the T/C under setting [8] is 51 % of control.
In the case of `CCC[CH2][Hg][Cl]`, the T/C was 83 % of control (dose: 9.38 mg/kg/injection, schedule: Q04DX004 (sc), vehicle: Klucel (hydroxypropylcellulose) (HPC)); 72 % of control (dose: 18.75 mg/kg/injection, schedule: Q04DX004 (sc), vehicle: Klucel (hydroxypropylcellulose) (HPC)); 45 % of control (dose: 37.5 mg/kg/injection, schedule: Q04DX004 (sc), vehicle: Klucel (hydroxypropylcellulose) (HPC)).
Turning to `O=C1c2ccccc2C(=O)c2c3c(cc(NCCNCCO)c21)N(CCO)CCN3`, the T/C is, setting by setting: (dose: 100.0 mg/kg/injection, schedule: Q04DX004 (sc), vehicle: DMSO) 168 % of control; (dose: 200.0 mg/kg/injection, schedule: Q04DX004 (sc), vehicle: DMSO) 112 % of control; (dose: 400.0 mg/kg/injection, schedule: Q04DX004 (sc), vehicle: DMSO) 59 % of control; (dose: 800.0 mg/kg/injection, schedule: Q04DX004 (sc), vehicle: DMSO) 104 % of control.
In the case of `CC1(CO)C(O)CCC2(C)C1CCC1CC3CC12CCC3(O)CO` (centres undefined), the T/C (dose: 50.0 mg/kg/injection, schedule: Q01DX010 (sc), vehicle: saline with Tween-80) was 50 % of control and 65 % of control; the T/C (dose: 100.0 mg/kg/injection, schedule: Q01DX010 (sc), vehicle: saline with Tween-80) is 69 % of control; the T/C (dose: 200.0 mg/kg/injection, schedule: Q01DX010 (sc), vehicle: saline with Tween-80) is 65 % of control.
On to `NC(=S)c1cn(C2OC(CO)C(O)C2O)c2ncnc(N)c12` (centres undefined), for which the T/C is 62 % of control under setting [9] and 79 % of control under setting [10].
`[Cl][Pt+2][Cl].[NH-]C1CCC1.[NH2-]`: the T/C reads like this: under setting [9], 54 % of control; under setting [10], 41 % of control; (dose: 25.0 mg/kg/injection, schedule: Q04DX004 (sc), vehicle: suspension in saline) 46 % of control.
In the case of `O=C(CCBr)N1CCN(C(=O)CCBr)CC1`, the T/C reads like this: (dose: 12.5 mg/kg/injection, schedule: Q01DX010 (sc), vehicle: Klucel (hydroxypropylcellulose) (HPC)) 71 % of control; (dose: 25.0 mg/kg/injection, schedule: Q01DX010 (sc), vehicle: Klucel (hydroxypropylcellulose) (HPC)) 64 % of control.
Turning to `Nc1ccc(C(OC(=O)c2cc3ccccc3c(Cc3c(O)c(C(=O)OC(c4ccc(N)cc4)(c4ccc(N)cc4)c4ccc(N)cc4)cc4ccccc34)c2O)(c2ccc(N)cc2)c2ccc(N)cc2)cc1`, the T/C (dose: 36.0 mg/kg/injection, schedule: Q04DX004 (sc), vehicle: saline with Tween-80) was 118 % of control; the T/C (dose: 72.0 mg/kg/injection, schedule: Q04DX004 (sc), vehicle: saline with Tween-80) is 70 % of control; the T/C (dose: 144.0 mg/kg/injection, schedule: Q04DX004 (sc), vehicle: saline with Tween-80) is 68 % of control; the T/C under setting [7] was 94 % of control; the T/C under setting [8] is 55 % of control.
Turning to `Nc1ncnc2c1ncn2C1OC(COP(=O)(O)O)C(O)C1O` (centres undefined), the T/C reads like this: (dose: 100.0 mg/kg/injection, schedule: Q01DX010 (sc), vehicle: saline) 152 % of control; under setting [1], 198 % of control; under setting [2], 260 % of control; under setting [3], 67 % of control.
As to `C=C[Si]12OCCN(CCO1)CCO2`, the T/C under setting [4] was 92 % of control; the T/C under setting [5] was 93 % of control; the T/C (dose: 1200.0 mg/kg/injection, schedule: Q04DX004 (sc), vehicle: Klucel (hydroxypropylcellulose) (HPC)) was 110 % of control; the T/C (dose: 2400.0 mg/kg/injection, schedule: Q04DX004 (sc), vehicle: Klucel (hydroxypropylcellulose) (HPC)) was 71 % of control.
Turning to `NC(Cc1ccc(N(CCCl)CCCl)cc1)C(=O)O` (centres undefined), the T/C by setting is: (dose: 5.0 mg/kg/injection, schedule: Q04DX004 (sc), vehicle: Klucel (hydroxypropylcellulose) (HPC)) 70 % of control; (dose: 10.0 mg/kg/injection, schedule: Q04DX004 (sc), vehicle: Klucel (hydroxypropylcellulose) (HPC)) 36 % of control and 53 % of control; (dose: 20.0 mg/kg/injection, schedule: Q04DX004 (sc), vehicle: Klucel (hydroxypropylcellulose) (HPC)) -16 % of control.
For the molecule `CC(C)NC(=O)OCc1c(COC(=O)NC(C)C)c(-c2ccc(Cl)c(Cl)c2)n2c1CCC2`, the T/C (dose: 25.0 mg/kg/injection, schedule: Q01DX010 (sc), vehicle: distilled water + Tween-80) is 107 % of control; the T/C (dose: 50.0 mg/kg/injection, schedule: Q01DX010 (sc), vehicle: distilled water + Tween-80) was 15 % of control; the T/C (dose: 200.0 mg/kg/injection, schedule: Q01DX010 (sc), vehicle: distilled water + Tween-80) was 60 % of control and 78 % of control; the T/C (dose: 800.0 mg/kg/injection, schedule: Q01DX010 (sc), vehicle: distilled water + Tween-80) is 44 % of control.
For the molecule `CO[C@@H]1[C@H](O)CC[C@]2(CO2)[C@H]1[C@@]1(C)O[C@@H]1CC=C(C)C`, the T/C was 108 % of control under setting [6]; 179 % of control under setting [7]; 108 % of control under setting [8]; 110 % of control (dose: 600.0 mg/kg/injection, schedule: Q04DX004 (sc), vehicle: saline with Tween-80).
`C(=N/NC1=NCCN1)/c1c2ccccc2c(/C=N\NC2=NCCN2)c2ccccc12`: the T/C (dose: 18.75 mg/kg/injection, schedule: Q04DX004 (sc), vehicle: saline) is 83 % of control; the T/C (dose: 37.5 mg/kg/injection, schedule: Q04DX004 (sc), vehicle: saline) was 105 % of control; the T/C (dose: 75.0 mg/kg/injection, schedule: Q04DX004 (sc), vehicle: saline) was 75 % of control.
`C[C@@]1(CO)[C@H](O)CC[C@@]2(C)[C@H]1CC[C@H]1C[C@@H]3C[C@@]12CC[C@@]3(O)COC(=O)CN`: the T/C was 226 % of control (dose: 8.0 mg/kg/injection, schedule: Q04DX004 (sc), vehicle: saline + alcohol); 106 % of control (dose: 16.0 mg/kg/injection, schedule: Q04DX004 (sc), vehicle: saline + alcohol); 94 % of control (dose: 32.0 mg/kg/injection, schedule: Q04DX004 (sc), vehicle: saline + alcohol); 218 % of control (dose: 64.0 mg/kg/injection, schedule: Q04DX004 (sc), vehicle: saline + alcohol); 97 % of control (dose: 500.0 micrograms/kg/injection, schedule: Q04DX004 (sc), vehicle: saline + alcohol); 108 % of control (dose: 1000.0 micrograms/kg/injection, schedule: Q04DX004 (sc), vehicle: saline + alcohol). Moreover, the T/C is, setting by setting: (dose: 2000.0 micrograms/kg/injection, schedule: Q04DX004 (sc), vehicle: saline + alcohol) 101 % of control; (dose: 4000.0 micrograms/kg/injection, schedule: Q04DX004 (sc), vehicle: saline + alcohol) 73 % of control.
